# Patent publication US20200131669A1, “CYCLIC PEPTIDE COMPOUND HAVING HIGH MEMBRANE PERMEABILITY, AND LIBRARY CONTAINING SAME” (Chugai Seiyaku Kabushiki Kaisha, priority 2017, published 2020)
# Starred links: 1 amine or outer side, 2 acyl side, 3 side chain; linkers in the order of their positions; H or OH if unused. Positions of bridges follow the written chain, without caps; N, C: chain ends. Non-standard residues stand in square brackets, D forms with d. Residues, ends and D or L forms follow the SMILES beside them. *: point of attachment. NMeAbu(3,3-F2-piperidino) = CN[C@@H](CCN1CCCC(F)(F)C1)C(=O)O; NMePhe(3-Cl) = CN[C@@H](Cc1cccc(Cl)c1)C(=O)O; hPhe(3-Cl) = N[C@@H](CCc1cccc(Cl)c1)C(=O)O; X14 = O=C([C@H](CCc1ccccc1Cl)N[*:1])[*:2]; hhPhe = N[C@@H](CCCc1ccccc1)C(=O)O; Hyp = O=C(O)[C@@H]1C[C@@H](O)CN1; NMeF = CN[C@@H](Cc1ccccc1)C(=O)O; NMeI = CC[C@H](C)[C@H](NC)C(=O)O; hPhe = N[C@@H](CCc1ccccc1)C(=O)O; NMeD = CN[C@@H](CC(=O)O)C(=O)O; NMeL = CN[C@@H](CC(C)C)C(=O)O; dNMeL = CN[C@H](CC(C)C)C(=O)O; NMeV = CN[C@H](C(=O)O)C(C)C; NMeS = CN[C@@H](CO)C(=O)O; Pip = O=C(O)[C@@H]1CCCCN1; NMeA = CN[C@@H](C)C(=O)O; Piperidide = C1CCN(*)CC1; dNMeA = CN[C@H](C)C(=O)O; NBuGly = CCCCNCC(=O)O; Isopentyl = CC(C)CC*; Ethyl(2-OH) = OCC*; X2 = Fc1cncc(C*)c1; Sar = CNCC(=O)O; tBu = CC(C)(C)*; CHF2 = FC(F)*; Propyl = CCC*
# Experiment: Caco-2 membrane permeability, improved method as used in the following Examples (96-well, 20 to 24 h preincubation)
# Format: in vitro ADME
# Details: Caco-2, Caco-2
# In short: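 Papp (cm/sec) was derived from LC/MS of basal samples collected 180 min after apical dosing in FaSSIF/HBSS pH 6.0 with 1% DMSO, against a basal HBSS pH 7.4 receiver containing 4% BSA. Three-week Caco-2 cultures were first preincubated with compound in DMEM+FaSSIF at 37 °C for 20–24 h.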
row,Compound,Papp A→B [×10⁻⁶ cm/s]
1,CC(C)C[C@@H]1NC(=O)[C@H](CC(C)C)N(C)C(=O)C[C@@H](C(=O)N2CCCCC2)NC(=O)[C@H](CC(C)C)N(C)C(=O)CN(C)C(=O)[C@H](CCC(=O)N(C)C)NC(=O)[C@H](CC(C)C)N(C)C(=O)[C@H](Cc2ccccc2)N(C)C(=O)[C@H](CC(C)C)NC(=O)[C@H](Cc2ccccc2)N(C)C(=O)[C@H](CC(C)C)N(C)C1=O [pd439] ([NMeL]L[NMeL][NMeF]L[NMeF][NMeL]E(NMe2)[Sar][NMeL]D-Piperidide; lactam N-11),1

# Same assay, conditions: human, Caco-2, Caco-2
row,Compound,Papp A→B at 180 min [×10⁻⁶ cm/s]
1,CC[C@H](C)[C@H]1C(=O)N[C@@H]([C@@H](C)O)C(=O)N(C)CC(=O)N(C)[C@@H](CC(C)C)C(=O)N[C@@H](C(=O)N2CCCCC2)CC(=O)N(C)[C@@H](C)C(=O)N[C@@H](CC(C)C)C(=O)N(C)[C@@H](CC(C)C)C(=O)N(C)[C@@H](CC(C)C)C(=O)N[C@@H](Cc2ccc(OC(F)F)cc2)C(=O)N(C)[C@@H](C)C(=O)N1C [pd480] ([NMeA]L[NMeL][NMeL]Y(CHF2)[NMeA][NMeI]T[Sar][NMeL][dD]-Piperidide; lactam N-11),5
2,CC(C)C[C@H]1C(=O)N[C@H](C(=O)N2CCCCC2)CC(=O)N(C)[C@@H](C)C(=O)N[C@@H](CCc2cccc(Cl)c2)C(=O)N(C)[C@@H](CC(C)C)C(=O)N(C)[C@@H](CC(C)C)C(=O)N[C@@H](C)C(=O)N(C)[C@@H](Cc2ccccc2)C(=O)N(C)[C@@H](C(C)C)C(=O)N[C@@H]([C@@H](C)O)C(=O)N(C)CC(=O)N1C [pd356] ([NMeA][hPhe(3-Cl)][NMeL][NMeL]A[NMeF][NMeV]T[Sar][NMeL]D-Piperidide; lactam N-11),1.2
3,CC(C)C[C@H]1C(=O)N[C@H](C(=O)N2CCCCC2)CC(=O)N(C)[C@@H](C)C(=O)N[C@@H](CCCc2ccccc2)C(=O)N(C)[C@@H](CC(C)C)C(=O)N(C)[C@@H](Cc2ccccc2)C(=O)N[C@@H](C)C(=O)N(C)[C@@H](Cc2ccccc2)C(=O)N(C)[C@@H](C(C)C)C(=O)N[C@@H]([C@@H](C)O)C(=O)N(C)CC(=O)N1C [pd365] ([NMeA][hhPhe][NMeL][NMeF]A[NMeF][NMeV]T[Sar][NMeL]D-Piperidide; lactam N-11),1.5
4,"CCCCN1CC(=O)N(C)[C@@H](CCN2CCCC(F)(F)C2)C(=O)N[C@H](C(=O)N2CCCCC2)CC(=O)N(C)[C@@H](C)C(=O)N[C@@H](CC(C)C)C(=O)N(C)[C@@H](CC(C)C)C(=O)N(C)[C@@H](Cc2ccccc2)C(=O)N[C@@H](CC(C)C)C(=O)N(C)[C@@H](Cc2ccccc2)C(=O)N(C)[C@@H](C)C(=O)N[C@@H]([C@@H](C)O)C1=O [pd392] ([NMeA]L[NMeL][NMeF]L[NMeF][NMeA]T[NBuGly][NMeAbu(3,3-F2-piperidino)]D-Piperidide; lactam N-11)",3.5
5,CC[C@H](C)[C@H]1C(=O)N[C@@H](C(C)C)C(=O)N(C)CC(=O)N(C)[C@@H](CC(C)C)C(=O)N[C@H](C(=O)N2CCCCC2)CC(=O)N(C)[C@@H](C)C(=O)N[C@@H](COCCO)C(=O)N(C)[C@H](CC(C)C)C(=O)N(C)[C@@H](Cc2ccccc2)C(=O)N[C@@H](CC(C)C)C(=O)N(C)[C@@H](Cc2ccccc2)C(=O)N1C [pd500] ([NMeA]S(Ethyl(2-OH))[dNMeL][NMeF]L[NMeF][NMeI]V[Sar][NMeL]D-Piperidide; lactam N-11),2.2
6,CC[C@H](C)[C@H]1C(=O)N[C@@H]([C@@H](C)O)C(=O)N(C)CC(=O)N(C)[C@@H](CC(C)C)C(=O)N[C@H](C(=O)N2CCCCC2)CC(=O)N(C)[C@@H](C)C(=O)N[C@@H](CCc2ccccc2Cl)C(=O)N(C)[C@@H](CC(C)C)C(=O)N(C)[C@@H](CC(C)C)C(=O)N[C@@H](C)C(=O)N(C)[C@@H](Cc2ccccc2)C(=O)N1C [pd352] ([NMeA][X14][NMeL][NMeL]A[NMeF][NMeI]T[Sar][NMeL]D-Piperidide; lactam N-11),1.4
7,CCO[C@@H]1C[C@H]2C(=O)N3CCCC[C@H]3C(=O)N[C@@H](COC(C)(C)C)C(=O)N(C)[C@@H](CC(C)C)C(=O)N[C@@H]([C@@H](C)O)C(=O)N(C)[C@@H](CC(C)C)C(=O)N(C)[C@@H](CC(C)C)C(=O)N(C)[C@@H](CC(C)C)C(=O)N[C@H](C(=O)N3CCCCC3)CC(=O)N[C@H](C(C)C)C(=O)N(C)[C@@H]([C@@H](C)CC)C(=O)N2C1 [pd383] ([dV][NMeI][Hyp](Et)[Pip]S(tBu)[NMeL]T[NMeL][NMeL][NMeL]D-Piperidide; lactam N-11),2.8
8,CCCOC[C@@H]1NC(=O)[C@H](Cc2ccccc2)N(C)C(=O)[C@H](CC(C)C)N(C)C(=O)[C@H](CC(C)C)NC(=O)[C@H](C)N(C)C(=O)C[C@@H](C(=O)N2CCCCC2)NC(=O)[C@H](CC(C)C)N(C)C(=O)CN(C)C(=O)[C@H]([C@@H](C)O)NC(=O)[C@H](CC(C)C)N(C)C(=O)[C@H](Cc2ccccc2)N(C)C1=O [pd329] ([NMeA]L[NMeL][NMeF]S(Propyl)[NMeF][NMeL]T[Sar][NMeL]D-Piperidide; lactam N-11),4.2
9,CC(C)C[C@H]1C(=O)N[C@@H](COC(C)(C)C)C(=O)N(C)[C@@H](Cc2ccccc2)C(=O)N(C)[C@@H](C(C)C)C(=O)N[C@H](C(=O)N2CCCCC2)CC(=O)N[C@H](C(C)C)C(=O)N(C)[C@@H](Cc2ccccc2)C(=O)N[C@@H](COCc2cncc(F)c2)C(=O)N(C)[C@@H](CC(C)C)C(=O)N[C@@H]([C@@H](C)O)C(=O)N(C)CC(=O)N1C [pd346] ([dV][NMeF]S(X2)[NMeL]T[Sar][NMeL]S(tBu)[NMeF][NMeV]D-Piperidide; lactam N-11),2.4

# Same assay, conditions: human, Caco-2, Caco-2 (cm/sec)
row,Compound,Papp A→B at 180 min [×10⁻⁶ cm/s]
1,CC(C)C[C@H]1C(=O)N[C@@H](COC(C)(C)C)C(=O)N(C)[C@@H](Cc2ccccc2)C(=O)N(C)[C@@H](CC(C)C)C(=O)N(C)[C@H](C(=O)N2CCCCC2)CC(=O)N(C)[C@H](C)C(=O)N(C)[C@@H](Cc2cccc(Cl)c2)C(=O)N[C@@H](C(C)C)C(=O)N(C)[C@@H](C(C)C)C(=O)N[C@@H]([C@@H](C)O)C(=O)N(C)CC(=O)N1C [pd168] ([dNMeA][NMePhe(3-Cl)]V[NMeV]T[Sar][NMeL]S(tBu)[NMeF][NMeL][NMeD]-Piperidide; lactam N-11),2.3

# Same assay, conditions: human; Papp, Caco-2 membrane permeability, improved method; read-out: Caco-2
row,Compound,Papp A→B at 180 min [×10⁻⁶ cm/s]
1,CC(C)CCOC[C@H]1C(=O)N[C@@H]([C@@H](C)O)C(=O)N(C)CC(=O)N(C)[C@@H](CC(C)C)C(=O)N[C@H](C(=O)N2CCCCC2)CC(=O)N(C)[C@@H](C)C(=O)N[C@@H](CC(C)C)C(=O)N(C)[C@@H](CC(C)C)C(=O)N(C)[C@@H](Cc2ccccc2)C(=O)N[C@@H](CC(C)C)C(=O)N(C)[C@@H](Cc2ccccc2)C(=O)N1C [pd308] ([NMeA]L[NMeL][NMeF]L[NMeF][NMeS](Isopentyl)T[Sar][NMeL]D-Piperidide; lactam N-11),2.1
2,CC(C)C[C@H]1C(=O)N[C@@H]([C@@H](C)O)C(=O)N(C)CC(=O)N(C)[C@@H](Cc2ccccc2)C(=O)N(C)[C@@H](CC(C)C)C(=O)N[C@@H](C(C)C)C(=O)N(C)[C@@H](CC(C)C)C(=O)N[C@H](C(=O)N2CCCCC2)CC(=O)N(C)CC(=O)N(C)[C@@H](C(C)C)C(=O)N[C@@H](CCc2ccccc2)C(=O)N1C [pd319] ([Sar][NMeV][hPhe][NMeL]T[Sar][NMeF][NMeL]V[NMeL]D-Piperidide; lactam N-11),2.2
